Data as given in patent publication US10188667B2, “Pharmaceutical compositions and methods of use of 4-pregenen-11β-17-21-triol-3,20-dione derivatives” (ALLERGAN, INC., priority 2011, dated 2019).

Legend:
[1] = target: GAL4(DBD)-MR(LBD) (Homo sapiens (Human), UniProt P08235); test: Mineralocorticoid receptor transactivation, UAS-bla HEK 293T CELLSENSOR reporter assay, agonist mode; type: cell-based; conditions: for % Activation at 100 nM: control compound aldosterone; for EC50: 16 hours incubation, maximum concentration 100 nM, read-out: EC50 (nM) MR (Table 4: mineralocorticoid receptor potency)
Chain of GAL4(DBD)-MR(LBD) (P08235 726-964): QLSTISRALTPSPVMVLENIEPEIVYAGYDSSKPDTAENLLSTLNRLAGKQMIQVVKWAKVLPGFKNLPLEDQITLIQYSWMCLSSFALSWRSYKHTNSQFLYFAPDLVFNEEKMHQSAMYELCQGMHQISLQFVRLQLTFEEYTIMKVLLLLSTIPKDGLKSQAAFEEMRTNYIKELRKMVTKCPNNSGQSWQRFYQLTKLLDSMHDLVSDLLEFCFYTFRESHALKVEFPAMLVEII
Experimental: Mineralocorticoid receptor (MR) activation potency was assessed using a HEK 293T cell line containing the UAS-bla reporter (UAS-bla HEK 293T CELLSENSOR®). This cell line was stably cotransfected with an expression construct containing β-lactamase cDNA under control of the GAL4 Upstream Activator Sequence (UAS) and another expression construct encoding for the fusion protein GAL4(DBD)-MR(LBD). […] All assays were performed as 10-point dose responses using a half log-fold dilution series starting with a maximum compound concentration of 100 nM. The compounds were incubated for 16 hours. The activation of the fusion protein GAL4(DBD)-MR(LBD) leads to expression of the reporter β-lactamase which is detected by the conversion of a FRET substrate in a ratiometric assay format. This functional assay allows for measurement of receptor agonism by compounds and can be used to determine compound potency and selectivity. Assay reproducibility was determined by calculating Z′ values for untreated versus maximum stimulation. The Z′ value was greater than 0.6, indicating good reproducibility of the assay format.

[2] = patients; eye drops; compared to synthetic GCs such as dexamethasone, prednisolone, fluorometholone; cited from earlier work
[3] = target: Glucocorticoid receptor (GR) (Homo sapiens (Human), UniProt P04150); test: Glucocorticoid receptor transactivation, MMTV-bla HeLa CELLSENSOR reporter assay, agonist mode; type: cell-based; conditions: for % Activation at 100 nM: control compound dexamethasone; for EC50: 5 hours incubation, maximum concentration 100 nM
Chain of Glucocorticoid receptor (GR) (P04150 whole entry): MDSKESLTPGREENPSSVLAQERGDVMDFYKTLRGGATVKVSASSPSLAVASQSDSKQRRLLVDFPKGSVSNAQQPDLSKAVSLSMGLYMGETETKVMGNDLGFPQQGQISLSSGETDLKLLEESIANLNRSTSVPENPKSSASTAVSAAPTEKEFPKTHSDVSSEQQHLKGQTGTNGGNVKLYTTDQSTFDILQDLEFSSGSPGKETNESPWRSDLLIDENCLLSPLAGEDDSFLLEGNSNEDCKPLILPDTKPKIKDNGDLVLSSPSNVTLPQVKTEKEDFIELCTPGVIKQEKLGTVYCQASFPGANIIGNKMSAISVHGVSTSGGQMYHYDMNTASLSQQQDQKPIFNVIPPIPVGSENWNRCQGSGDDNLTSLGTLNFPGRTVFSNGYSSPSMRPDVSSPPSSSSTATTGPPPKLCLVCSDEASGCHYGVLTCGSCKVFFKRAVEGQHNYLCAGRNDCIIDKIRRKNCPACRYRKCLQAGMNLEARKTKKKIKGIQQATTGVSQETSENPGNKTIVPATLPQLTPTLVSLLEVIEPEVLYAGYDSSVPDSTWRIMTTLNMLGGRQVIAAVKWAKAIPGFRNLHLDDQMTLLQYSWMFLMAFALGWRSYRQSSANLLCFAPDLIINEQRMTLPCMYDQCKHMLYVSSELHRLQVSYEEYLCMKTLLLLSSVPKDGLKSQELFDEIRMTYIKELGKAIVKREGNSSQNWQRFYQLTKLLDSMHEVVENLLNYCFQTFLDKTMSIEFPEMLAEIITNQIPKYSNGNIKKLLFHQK

## C[C@]12CCC(=O)C=C1CC[C@@H]1[C@@H]2[C@@H](O)C[C@@]2(C)[C@H]1CC[C@]2(O)C(=O)CO [drawing 23]
[1]
  % Activation at 100 nM: 75%
  EC50: 2.9 nM

## CCCC(=O)O[C@]1(C(=O)CO)CC[C@H]2[C@@H]3CCC4=CC(=O)CC[C@]4(C)[C@H]3[C@@H](O)C[C@@]21C [drawing 24]
[1]
  % Activation at 100 nM: 77%
  EC50: 2.94 nM

## C[C@]12CCC(=O)C=C1CC[C@@H]1[C@@H]2[C@@H](O)C[C@@]2(C)[C@H]1CC[C@]2(O)C(=O)CO [cortisol]
[2]
  effect on intraocular pressure: minimal effect on intraocular pressure

## CCC(=O)O[C@]1(C(=O)CO)CC[C@H]2[C@@H]3CCC4=CC(=O)CC[C@]4(C)[C@H]3[C@@H](O)C[C@@]21C [drawing 25]
[1]
  % Activation at 100 nM: 76%
  EC50: 3.17 nM

## C[C@]12CCC(=O)C=C1CC[C@@H]1[C@@H]2[C@@H](O)C[C@@]2(C)[C@H]1CC[C@]2(OC(=O)c1ccccc1)C(=O)CO [drawing 28]
[1]
  % Activation at 100 nM: 62%
  EC50: 7.46 nM

## CCCCCC(=O)O[C@]1(C(=O)CO)CC[C@H]2[C@@H]3CCC4=CC(=O)CC[C@]4(C)[C@H]3[C@@H](O)C[C@@]21C [drawing 27]
[1]
  % Activation at 100 nM: 64%
  EC50: 5.68 nM

## CCC(=O)O[C@]1(C(=O)CO)CC[C@H]2[C@@H]3CCC4=CC(=O)CC[C@]4(C)[C@H]3[C@@H](O)C[C@@]21C [drawing 16]
[3]
  % Activation at 100 nM: 85%
  EC50: 6.31 nM

## C[C@]12CCC(=O)C=C1CC[C@@H]1[C@@H]2[C@@H](O)C[C@@]2(C)[C@H]1CC[C@]2(OC(=O)Cc1ccccc1)C(=O)CO [drawing 22]
[1]
  % Activation at 100 nM: 81%
  EC50: 2.85 nM

## CCCC(=O)O[C@]1(C(=O)CO)CC[C@H]2[C@@H]3CCC4=CC(=O)CC[C@]4(C)[C@H]3[C@@H](O)C[C@@]21C [drawing 13]
[3]
  % Activation at 100 nM: 86%
  EC50: 1.97 nM

## C[C@]12CCC(=O)C=C1CC[C@@H]1[C@@H]2[C@@H](O)C[C@@]2(C)[C@H]1CC[C@]2(OC(=O)c1ccccc1)C(=O)CO [drawing 12]
[3]
  % Activation at 100 nM: 85%
  EC50: 1.41 nM

## C[C@]12CCC(=O)C=C1CC[C@@H]1[C@@H]2[C@@H](O)C[C@@]2(C)[C@H]1CC[C@]2(OC(=O)C1CCCC1)C(=O)CO [drawing 11]
[3]
  % Activation at 100 nM: 88%
  EC50: 1.35 nM

## CC(C)C(=O)O[C@]1(C(=O)CO)CC[C@H]2[C@@H]3CCC4=CC(=O)CC[C@]4(C)[C@H]3[C@@H](O)C[C@@]21C [drawing 17]
[3]
  % Activation at 100 nM: 84%
  EC50: 7.07 nM

## C[C@]12CCC(=O)C=C1CC[C@@H]1[C@@H]2[C@@H](O)C[C@@]2(C)[C@H]1CC[C@]2(OC(=O)C1CCCC1)C(=O)CO [drawing 31]
[1]
  % Activation at 100 nM: 27%
  EC50: > 100 nM

## C[C@]12CCC(=O)C=C1CC[C@@H]1[C@@H]2[C@@H](O)C[C@@]2(C)[C@H]1CC[C@]2(O)C(=O)CO [drawing 18]
[3]
  % Activation at 100 nM: 43%

## CC(C)C(=O)O[C@]1(C(=O)CO)CC[C@H]2[C@@H]3CCC4=CC(=O)CC[C@]4(C)[C@H]3[C@@H](O)C[C@@]21C [drawing 30]
[1]
  % Activation at 100 nM: 62%
  EC50: 15.6 nM

## CCCCCCC(=O)O[C@]1(C(=O)CO)CC[C@H]2[C@@H]3CCC4=CC(=O)CC[C@]4(C)[C@H]3[C@@H](O)C[C@@]21C [drawing 29]
[1]
  % Activation at 100 nM: 56%
  EC50: 9.29 nM

## CCCCCCC(=O)O[C@]1(C(=O)CO)CC[C@H]2[C@@H]3CCC4=CC(=O)CC[C@]4(C)[C@H]3[C@@H](O)C[C@@]21C [drawing 26]
[1]
  % Activation at 100 nM: 72%
  EC50: 5.27 nM

## C[C@]12CCC(=O)C=C1CC[C@@H]1[C@@H]2[C@@H](O)C[C@@]2(C)[C@H]1CC[C@]2(OC(=O)Cc1ccccc1)C(=O)CO [drawing 20]
[3]
  % Activation at 100 nM: 5%
  EC50: > 100 nM

## CCCCCC(=O)O[C@]1(C(=O)CO)CC[C@H]2[C@@H]3CCC4=CC(=O)CC[C@]4(C)[C@H]3[C@@H](O)C[C@@]21C [drawing 14]
[3]
  % Activation at 100 nM: 65%
  EC50: 3.25 nM

## CCCCCCC(=O)O[C@]1(C(=O)CO)CC[C@H]2[C@@H]3CCC4=CC(=O)CC[C@]4(C)[C@H]3[C@@H](O)C[C@@]21C [drawing 19]
[3]
  % Activation at 100 nM: 15%
  EC50: > 100 nM

## CCCCCCC(=O)O[C@]1(C(=O)CO)CC[C@H]2[C@@H]3CCC4=CC(=O)CC[C@]4(C)[C@H]3[C@@H](O)C[C@@]21C [drawing 15]
[3]
  % Activation at 100 nM: 47%
  EC50: 6.04 nM
